This note sets out measurements from patent US20230089073A1 (Carmot Therapeutics, Inc., priority 2021, published 2023).

Structures are written as SMILES.

In the assay the target is T1, human GLP-1 receptor (Homo sapiens, UniProt P43220).
T1 construct: expressed in transfected cells
T1 sequence (P43220 24-463): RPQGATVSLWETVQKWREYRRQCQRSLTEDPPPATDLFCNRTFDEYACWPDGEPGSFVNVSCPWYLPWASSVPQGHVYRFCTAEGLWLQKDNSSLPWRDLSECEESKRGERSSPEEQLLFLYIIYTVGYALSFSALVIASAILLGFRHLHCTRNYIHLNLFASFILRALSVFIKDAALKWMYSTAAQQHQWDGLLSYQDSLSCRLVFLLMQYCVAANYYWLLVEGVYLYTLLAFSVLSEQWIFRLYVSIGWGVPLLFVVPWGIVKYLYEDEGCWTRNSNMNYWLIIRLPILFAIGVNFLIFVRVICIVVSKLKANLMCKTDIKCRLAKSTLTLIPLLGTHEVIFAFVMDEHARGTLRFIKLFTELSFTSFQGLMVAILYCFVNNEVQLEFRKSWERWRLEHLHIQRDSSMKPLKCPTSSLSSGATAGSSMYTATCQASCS
The assay is described as follows: GLP-1R cAMP Assay. Conditions: cAMP accumulation in CHO cells stably overexpressing the human GLP-1 receptor; 30 min treatment; HitHunter cAMP kit; read-out: EC50. The format is cell-based. As for the experimental part: cAMP accumulation was measured in Chinese hamster ovary (CHO) cells stably overexpressing the human GLP-1 receptor using the HitHunter cAMP Assay for Small Molecules Kit (Eurofins). Briefly, cells were grown in Ham's F12 Nutrient Mix with 10% FBS, and lifted with Cell Dissociation Buffer, Enzyme free, PBS based (ThermoFisher). […] The anti-cAMP antibody reagent was then added to cells at a 1:2 ratio and 5 μL of mixture was seeded in 384-well small volume white assay plates, at 10,000 cells/well. Cells were then treated with 50 nL compound using an ECHO 550 acoustic dispenser (Labcyte) in a 20-point dose response format in triplicate for 30 min. Cells were then lysed, and detection reagents added according to the manufacturer's protocol. After overnight incubation, luminescence was measured using a Perkin Elmer Envision plate reader. Dose response curves were analyzed using GraphPad Prism 9.0.
`CCn1cncc1Cn1c(CN2CCC(C(O)c3cccc(COc4ccc(C)cc4Cl)c3)CC2)nc2ccc(C(=O)O)cc21` (racemic) [Example 130, 2-((4-((3-((2-Chloro-4-methylphenoxy)methyl)phenyl)(hydroxy)methyl)piperidin-1-yl)methyl)-1-((1-ethyl-1H-imidazol-5-yl)methyl)-1H-benzo[d]imidazole-6-carboxylic acid]: the EC50 (in general, the concentration giving half of the maximal effect) was less than 50 nM.

Take `CCn1cncc1Cn1c(CN2CCC(C(F)c3cccc(COc4ccc(C)cc4Cl)c3)CC2)nc2ccc(C(=O)O)cc21` (racemic) [Example 131, 2-((4-((3-((2-Chloro-4-methylphenoxy)methyl)phenyl)fluoromethyl)piperidin-1-yl)methyl)-1-((1-ethyl-1H-imidazol-5-yl)methyl)-1H-benzo[d]imidazole-6-carboxylic acid]: the EC50 is less than 50 nM.

As for `CC(Oc1ccc(C#N)cc1F)c1nccc(OC2CCN(Cc3nc4ccc(C(=O)O)cc4n3C[C@@H]3CCO3)CC2)n1` (mixture of isomers) [Example 480, 2-((4-((2-(1-(4-Cyano-2-fluorophenoxy)ethyl)pyrimidin-4-yl)oxy)piperidin-1-yl)methyl)-1-(((S)-oxetan-2-yl)methyl)-1H-benzo[d]imidazole-6-carboxylic acid], the EC50 lay in the range of 50 to 500 nM.

For the compound `C[C@@H](Oc1ccc(Cl)cc1Cl)c1ccc(C(=O)N2CCN(Cc3nc4ccc(C(=O)O)cc4n3C[C@@H]3CCO3)CC2)o1` (relative stereo) [Example 94, 2-((4-(5-((R)-1-(2,4-dichlorophenoxy)ethyl)furan-2-carbonyl)piperazin-1-yl)methyl)-1-(((S)-oxetan-2-yl)methyl)-1H-benzo[d]imidazole-6-carboxylic acid], the EC50 was more than 500 nM.

As to `CCn1cncc1Cn1c(CN2CCC([C@H](F)c3cccc(COc4ccc(Cl)cc4Cl)c3)CC2)nc2ccc(C(=O)O)cc21` (single isomer, unassigned) [Compound 202], the EC50 is less than 50 nM.

For the compound `CCn1cncc1Cn1c(CN2CCC([C@@H](F)c3cccc(COc4ccc(Cl)cc4Cl)c3)CC2)nc2ccc(C(=O)O)cc21` (single isomer, unassigned) [Compound 203], the EC50 was less than 50 nM.

For the compound `C[C@H](Oc1ccc(Cl)cc1Cl)c1ccc(C(=O)N2CCN(Cc3nc4ccc(C(=O)O)cc4n3C[C@@H]3CCO3)CC2)o1` (single isomer, unassigned) [Example 96], the EC50 is more than 500 nM.

`CCn1cncc1Cn1c(CN2CCC([C@@H](OC)c3cccc(COc4ccc(Cl)cc4Cl)c3)CC2)nc2ccc(C(=O)O)cc21` (single isomer, unassigned) [Example 204]: the EC50 fell in the range of 50 to 500 nM.

Regarding `CCn1cncc1Cn1c(CN2CCC([C@H](OC)c3cccc(COc4ccc(Cl)cc4Cl)c3)CC2)nc2ccc(C(=O)O)cc21` (single isomer, unassigned) [Example 205], the EC50 fell in the range of 50 to 500 nM.

For the compound `O=C(O)c1ccc2nc(CN3CCN(C(=O)c4cccc(Cc5ccc(F)cc5)c4)CC3)n(C[C@@H]3CCO3)c2c1` [Compound 3, 2-[(4-{3-[(4-fluorophenyl)methyl]benzoyl}piperazin-1-yl)methyl]-1-{[(2S)-oxetan-2-yl]methyl}-1H-1,3-benzodiazole-6-carboxylic acid], the EC50 is more than 500 nM.

`N#Cc1ccccc1Oc1ccccc1C(=O)N1CCN(Cc2nc3ccc(C(=O)O)cc3n2C[C@@H]2CCO2)CC1` [Compound 4, 2-({4-[2-(2-cyanophenoxy)benzoyl]piperazin-1-yl}methyl)-1-{[(2S)-oxetan-2-yl]methyl}-1H-1,3-benzodiazole-6-carboxylic acid]: the EC50 was more than 500 nM.

Take `Cc1ccc(Oc2cccc(C(=O)N3CCN(Cc4nc5ccc(C(=O)O)cc5n4C[C@@H]4CCO4)CC3)c2)cc1` [Compound 5, 2-({4-[3-(4-methylphenoxy)benzoyl]piperazin-1-yl}methyl)-1-{[(2S)-oxetan-2-yl]methyl}-1H-1,3-benzodiazole-6-carboxylic acid]: the EC50 was more than 500 nM.

For the compound `COc1ccc(Oc2cccc(C(=O)N3CCN(Cc4nc5ccc(C(=O)O)cc5n4C[C@@H]4CCO4)CC3)c2)cc1` [Compound 6, 2-({4-[3-(4-methoxyphenoxy)benzoyl]piperazin-1-yl}methyl)-1-{[(2S)-oxetan-2-yl]methyl}-1H-1,3-benzodiazole-6-carboxylic acid], the EC50 was more than 500 nM.

Consider `O=C(O)c1ccc2nc(CN3CCN(C(=O)c4cccc(Oc5ccc(Cl)cc5)c4)CC3)n(C[C@@H]3CCO3)c2c1` [Compound 7, 2-({4-[3-(4-chlorophenoxy)benzoyl]piperazin-1-yl}methyl)-1-{[(2S)-oxetan-2-yl]methyl}-1H-1,3-benzodiazole-6-carboxylic acid], for which the EC50 was more than 500 nM.

As for `Cc1c(Cl)cccc1OCc1ccc(CN2CCN(Cc3nc4ccc(C(=O)O)cc4n3C[C@@H]3CCO3)CC2)o1` [Compound 8, 2-{[4-({5-[(3-chloro-2-methylphenoxy)methyl]furan-2-yl}methyl)piperzin-1-yl]methyl}-1-{[(2S)-oxetan-2-yl]methyl}-1H-1,3-benzodiazole-6-carboxylic acid], the EC50 fell in the range of 50 to 500 nM.

Turning to `O=C(O)c1ccc2nc(CN3CCN(Cc4ccc(COc5ccc(Cl)cc5Cl)o4)CC3)n(C[C@@H]3CCO3)c2c1` [Compound 9, 2-{[4-({5-[(2,4-dichlorophenoxy)methyl]furan-2-yl}methyl)piperzin-1-yl]methyl}-1-{[(2S)-oxetan-2-yl]methyl}-1H-1,3-benzodiazole-6-carboxylic acid], the EC50 was in the range of 50 to 500 nM.

In the case of `O=C(O)c1ccc2nc(CN3CCN(C(=O)c4cccc(Oc5cc(Cl)ccc5Cl)c4)CC3)n(C[C@@H]3CCO3)c2c1` [Compound 11, 2-({4-[3-(2,5-dichlorophenoxy)benzoyl]piperazin-1-yl}methyl)-1-{[(2S)-oxetan-2-yl]methyl}-1H-1,3-benzodiazole-6-carboxylic acid], the EC50 is more than 500 nM.

Take `O=C(O)c1ccc2nc(CN3CCN(C(=O)c4cccc(Oc5cc(Cl)ccc5F)c4)CC3)n(C[C@@H]3CCO3)c2c1` [Compound 12, 2-({4-[3-(5-chloro-2-fluorophenoxy)benzoyl]piperazin-1-yl}methyl)-1-{[(2S)-oxetan-2-yl]methyl}-1H-1,3-benzodiazole-6-carboxylic acid]: the EC50 is more than 500 nM.

For the compound `O=C(O)c1ccc2nc(CN3CCN(C(=O)c4cccc(Oc5ccc(F)cc5)c4)CC3)n(C[C@@H]3CCO3)c2c1` [Compound 13, 2-({4-[3-(4-fluorophenoxy)benzoyl]piperazin-1-yl}methyl)-1-{[(2S)-oxetan-2-yl]methyl}-1H-1,3-benzodiazole-6-carboxylic acid], the EC50 was more than 500 nM.

Turning to `Cc1ccc(Oc2cccc(C(=O)N3CCN(Cc4nc5ccc(C(=O)O)cc5n4C[C@@H]4CCO4)CC3)c2)c(Cl)c1` [Compound 15, 2-({4-[3-(2-chloro-4-methylphenoxy)benzoyl]piperazin-1-yl}methyl)-1-{[(2S)-oxetan-2-yl]methyl}-1H-1,3-benzodiazole-6-carboxylic acid], the EC50 fell in the range of 50 to 500 nM.

As for `Cc1ccc(Oc2cccc(C(=O)N3CCN(Cc4nc5ccc(C(=O)O)cc5n4C[C@@H]4CCO4)CC3)c2)c(F)c1` [Compound 16, 2-({4-[3-(2-fluoro-4-methylphenoxy)benzoyl]piperazin-1-yl}methyl)-1-{[(2S)-oxetan-2-yl]methyl}-1H-1,3-benzodiazole-6-carboxylic acid], the EC50 was more than 500 nM.

In the case of `Cc1cccc(Oc2cccc(C(=O)N3CCN(Cc4nc5ccc(C(=O)O)cc5n4C[C@@H]4CCO4)CC3)c2)c1` [Compound 17, 2-({4-[3-(3-methylphenoxy)benzoyl]piperazin-1-yl}methyl)-1-{[(2S)-oxetan-2-yl]methyl}-1H-1,3-benzodiazole-6-carboxylic acid], the EC50 was more than 500 nM.

Take `Cc1ccc(Oc2cccc(C(=O)N3CCN(Cc4nc5ccc(C(=O)O)cc5n4C[C@@H]4CCO4)CC3)c2)c(C)c1` [Compound 18, 2-({4-[3-(2,4-dimethylphenoxy)benzoyl]piperazin-1-yl}methyl)-1-{[(2S)-oxetan-2-yl]methyl}-1H-1,3-benzodiazole-6-carboxylic acid]: the EC50 is 50 to 500 nM.

As to `Cc1cccc(Oc2ccc(C(=O)N3CCN(Cc4nc5ccc(C(=O)O)cc5n4C[C@@H]4CCO4)CC3)cc2)c1` [Compound 21, 2-({4-[4-(3-methylphenoxy)benzoyl]piperazin-1-yl}methyl)-1-{[(2S)-oxetan-2-yl]methyl}-1H-1,3-benzodiazole-6-carboxylic acid], the EC50 was more than 500 nM.

Turning to `Cc1ccc(Oc2ccc(C(=O)N3CCN(Cc4nc5ccc(C(=O)O)cc5n4C[C@@H]4CCO4)CC3)cc2)cc1` [Compound 22, 2-({4-[4-(4-methylphenoxy)benzoyl]piperazin-1-yl}methyl)-1-{[(2S)-oxetan-2-yl]methyl}-1H-1,3-benzodiazole-6-carboxylic acid], the EC50 is more than 500 nM.

For the compound `COC(=O)c1ccc2nc(CN3CCN(C(=O)c4cccc(Oc5ccc(C)cc5Cl)c4)CC3)n(C[C@@H]3CCO3)c2c1` [Compound 23, methyl 2-({4-[3-(2-chloro-4-methylphenoxy)benzoyl]piperazin-1-yl}methyl)-1-{[(2S)-oxetan-2-yl]methyl}-1H-1,3-benzodiazole-6-carboxylate], the EC50 was more than 500 nM.

`COC(=O)c1ccc2nc(CN3CCN(C(=O)c4ccc(COc5cccc(Cl)c5C)o4)CC3)n(C[C@@H]3CCO3)c2c1` [Compound 24, methyl 2-[(4-{5-[(3-chloro-2-methylphenoxy)methyl]furan-2-carbonyl}piperazin-1-yl)methyl]-1-{[(2S)-oxetan-2-yl]methyl}-1H-1,3-benzodiazole-6-carboxylate]: the concentration for a half-maximal effect (EC50) was more than 500 nM.
